This note sets out measurements from US10466253B2, “Molecular flux rates through critical pathways measured by stable isotope labeling in vivo, as biomarkers of drug action and disease activity” (The Regents of the University of California, priority 2004, dated 2019).

“Also recorded” adds a separate entry of the source. Like-named read-outs stand apart in the source and are kept apart here.

For one data set, the system named is SW 1753 cells. Briefly: DNA methylation in cultured tumor cells (2H3-methyl methionine labeling, GC-MS of methylcytosine). As to conditions: for inhibition at 0.25 µM: read-out: inhibition of methylation (reduction). The class given is cell-based.
Data set [1] deals with EMT7 mouse mammary carcinoma cells. Briefly: In vivo tumor cell proliferation over 5 days of chemotherapy. Also noted: species or system female balb/C mice. As to conditions: Gem 125 mg/kg every other day, HU 500 mg/kg daily.
The test system of a further data set is bone marrow. Briefly: Bone marrow proliferation in tumor-bearing mice over 5 days of chemotherapy. It is filed as in vivo, female balb/C mice. As to conditions: Gem 125 mg/kg every other day, HU 500 mg/kg daily.
A short description of data set [2]: Tolerability of maintained 2H2O body water enrichment. The class given is in vivo, humans and experimental animals. As to conditions: 1-10% of total body water labeled, weeks or months; >100 human subjects. From the text:
Relatively high body water enrichments of ^2H2O (e.g., 1-10% of the total body water is labeled) may be achieved relatively inexpensively using the techniques of the invention. […] This finding in a large number of human subjects (>100 people) is contrary to previous concerns about vestibular toxicities at high doses of ^2H2O. The Applicant has discovered that as long as rapid changes in body water enrichment are prevented (e.g., by initial administration in small, divided doses), high body water enrichments of ^2H2O can be maintained with no toxicities. For example, the low expense of commercially available ^2H2O allows long-term maintenance of enrichments in the 1-5% range at relatively low expense (e.g., calculations reveal a lower cost for 2 months labeling at 2% ^2H2O enrichment, and thus 7-8% enrichment in the alanine precursor pool, than for 12 hours labeling of ^2H-leucine at 10% free leucine enrichment, and thus 7-8% enrichment in leucine precursor pool for that period).

Data set [3] relates to hippocampal neuroprogenitor cells. Briefly: Hippocampal neuroprogenitor cell proliferation (2H2O labeling of DNA, GC/MS). It is filed as in vivo, male 129SvEv mice. As to the method:
FIG. 7 depicts the effects of chronic imipramine treatment on hippocampal neuroprogenitor cell proliferation in male 129SvEv mice. […] Mice received 3 weeks of treatment with imipramine (20 mg/kg/day) in drinking water and were labeled with 10% ^2H2O during the last 3 days of treatment. Data represent mean±SD, n=4 per group.
FIG. 8 depicts the effects of chronic fluoxetine treatment on hippocampal neuroprogenitor cell proliferation in male 129SvEv mice. […] Mice received 2 weeks of treatment with fluoxetine (10 mg/kg/day) in drinking water and were labeled with 10% ^2H2O during the last week of treatment.
DNA is then isolated from the tissue or cell of interest using a Qiagen kit (Qiagen, Valencia, Calif.), following the manufacturer's protocol. Isolated DNA, eluted in water, is adjusted to pH 9-10 and hydrolyzed enzymatically; deoxyribose is released selectively from purine (dA/dG) deoxynucleotides and converted to the pentane tetraacetate derivative. Alternatively, a pentafluorobenzyl derivative is prepared by reaction with excess pentafluorobenzyl hydroxylamine under acidic conditions, followed by acetylation with acetic anhydride. Either type of derivative is subsequently extracted with an organic solvent, dried with sodium sulfate, and analyzed by GC/MS as described, supra. […]

In data set [4] the test system is bone marrow cells (total, lymphoid, myeloid, other). Briefly: Bone marrow cell subset proliferation after hydroxyurea (myelosuppression).
The test system of another data set is mature neurons. Briefly: Proliferation of mature neurons (neurogenesis; flow cytometry isolated neurons). The class given is in vivo. As to conditions: imipramine-treated vs normal adult mice. From the text:
FIG. 27 depicts the proliferation of mature neurons in normal and antidepressant (imipramine)-treated adult mice. Neurons were isolated by flow cytometry and analyzed as described in Example 2, infra.
Animals are sacrificed, brain is removed and the hippocampus is dissected out. […] Different durations of label administration can be used to differentiate between the kinetics of rapidly proliferating cells, such as the progenitor cell population, compared to the slower rate of label incorporation in neuronal cells. In order to assess neurogenesis directly, ^2H2O-labeled […] are sacrificed, the brain is removed, the hippocampus is dissected out and cut into 0.5 mm slices followed by digestion/dissociation with papain and trypsin. The isolated cells are stained for neuronal markers and sorted by flow cytometry. DNA is isolated and labeling is measured as described, supra.
For orientation: Flow cytometry measures light scatter and fluorescence of single cells or particles in a stream.

Data set [5] concerns endothelial cells from xenograft tumors. Briefly: Tumor endothelial cell proliferation in xenograft tumors (angiogenesis). It is filed as in vivo, Balb/c Nu-/Nu- mice. As to conditions: two weeks drug treatment; vs vehicle (saline)/untreated group. As to the method:
FIG. 18 depicts proliferation of endothelial cells from xenograft tumors in mice treated with an anti-angiogenic drug (Avastin) or a vehicle (saline). Endothelial cell proliferation is suppressed in animals treated with the drug.
The kinetics of angiogenesis are measured in liver and tumor xenografts. Balb/c Nu−/Nu− mice are transplanted with human breast tumor cells. After labeling with ^2H2O, individual animals are sacrificed, and both tumor tissue and liver tissue are harvested from the same animal. The tissue is then digested with collagenase (1 mg/mL) into a single cell suspension. Endothelial cells are enriched by Percoll gradient centrifugation, followed by FACS (sorting on isolection and CD31 positive cells). The proliferation rate of tumor endothelial cells, as well as liver endothelial cells is then measured by purifying, processing, derivatizing, and analyzing the DNA from the isolated endothelial cells, as described in example 2, supra.

Another data set relates to microglia. Briefly: Microglial proliferation assay of neuroinflammation (2H2O labeling, FACS-isolated microglia). It is filed as in vivo, mice. As to conditions: LPS i.p. (1 and 4 mg/kg every other day in FIG. 14); vs control; p<0.05 / p<0.01 ANOVA/Tukey. The method, then:
FIG. 14 depicts microglial response to the neuroinflammatory toxin lipopolysacharride (LPS). LPS is administered every other day to mice intraperitoneally at the two doses indicated (1 and 4 mg/kg body weight). ^2H2O was administered concurrently. Some animals were harvested at each of the indicated time points, and microglia were isolated and analyzed for deuterium incorporation. […] Error bars indicate standard deviation.
FIG. 15 depicts the effects of two anti-inflammatory chemotherapeutic agents (dexamethasone and minocycline) on microglial proliferation. Mice were given ^2H2O and either intraperitoneal lipopolysaccharide (LPS) to induce neuroinflammation, or a vehicle (control). Mice given LPS were treated with either a vehicle or dexamethasone or minocycline. Microglia were then isolated and analyzed for deuterium incorporation as described herein.
Mice are labeled with ^2H2O for an appropriate period. Mice are anesthetized and perfused with 10 mL ice cold PBS (trans-cardiac perfusion). Brains are immediately harvested and placed on ice in cold PBS. […]
The resulting cells are stained with the macrophage specific markers F4/80 and CD11b, fixed in 4% paraformaldehyde (PFA), and then isolated by FACS. […] DNA is extracted from sorted cells, hydrolyzed, derivatized, and analyzed by GC/MS as described in Example 2, supra. […]

A further data set deals with cerebral cortical tissue. Briefly: Cerebral cortical tissue/cell turnover (2H2O labeling of cortical DNA). As to conditions: high dose of LPS.
The test system of a further data set is liver collagen synthesis. Briefly: Liver collagen synthesis in CCl4-induced liver fibrosis. As to conditions: CCl4-induced liver fibrosis.
The mark [6] stands for this setting: single dose 500 mg/kg i.p., 8% 2H2O for subsequent 24 hours, vs vehicle.

With `Nc1ncn([C@H]2C[C@H](O)[C@@H](CO)O2)c(=O)n1` [Decitabine, decitabine], the inhibition at 0.25 µM in the data set on SW 1753 cells was found to be 70%.
Take `Nc1ccn([C@@H]2O[C@H](CO)[C@@H](O)C2(F)F)c(=O)n1` [Gem, gemcitabine]: the values for the tumor cell proliferation entry in data set [1] and in data set [1] (listed as gemcitabine) were “suppressed” and “reduced”, respectively. Moreover, the bone marrow proliferation entry in the data set on bone marrow is “suppressed”.
Turning to `[2H]O[2H]` [^2H2O], the “toxicity of maintained body water enrichment” value in data set [2] is recorded as “without any evidence of toxicity”.
On to `Nc1ncn([C@@H]2O[C@H](CO)[C@@H](O)[C@H]2O)c(=O)n1` [azacytidine, azacitidine], for which, in the data set on SW 1753 cells (250 nM, SW 1753 cells, DMEM 10% FBS with 2H3-methyl methionine), the inhibition at 0.25 µM is below 10%. The “fraction of methylcytosine that is new” value with SW 1753 cells (24-hour labeling period, 125, 250, 500 nM) was “suppressed”.
Consider `CNCCC(Oc1ccc(C(F)(F)F)cc1)c1ccccc1` (centres unmarked) [fluoxetine], for which, in data set [3] (fluoxetine 10 mg/kg/day in drinking water, 2 weeks, 10% 2H2O during last week, p<0.05 vs vehicle), the “hippocampal neuroprogenitor cell proliferation” value is on record as “increases progenitor cell proliferation; also recorded: significant increase”.
Turning to `NC(=O)NO` [hydroxyurea], in data set [1], the tumor cell proliferation entry is reported as “reduced”. The tumor cell proliferation result in data set [1] (listed as HU) was “suppressed”. In the data set with bone marrow, the bone marrow proliferation result is “suppressed”. Also, the “bone marrow proliferation across subsets (TBM, lymphoid, myeloid, other)” value in data set [4] (in three cases (indicated by **)) was “suppressed bone marrow proliferation”. In data set [4] (setting [6]), the “proliferation of lymphoid bone marrow cells” value is given as “statistically significant suppressive effect”, the “proliferation of other bone marrow cells” value is on record as “statistically significant suppressive effect” and the “proliferation of total bone marrow (TBM)” value is listed as “statistically significant suppressive effect”.
For `CN(C)CCCN1c2ccccc2CCc2ccccc21` [imipramine], the “hippocampal neuroprogenitor cell proliferation” value in data set [3] (imipramine 20 mg/kg/day in drinking water, 3 weeks, 10% 2H2O during last 3 days, vs vehicle) is listed as “increases progenitor cell proliferation; also recorded: significant increase”. The “rate of mature neuron formation” value in the data set on mature neurons was “increased formation of mature neurons”; with mature neurons (listed as Imipramine), “increased the rate of mature neuron formation”.
Consider “Avastin: Avastin (Genentech, CA), a known anti-angiogenesis drug”, for which, in [5], the “tumor endothelial cell proliferation rate” value was “suppressed; also recorded: significantly lower proliferation rate”.
Take lipopolysaccharide [LPS]: in the data set with microglia, the microglial proliferation entry was “increased proliferative response; also recorded: increased proliferation; also recorded: statistically significant and dose-dependent increase”. In the data set on cerebral cortical tissue, the cortical tissue turnover entry is given as “affected cortical tissue turnover; also recorded: increased cortical cell turnover”.

B1: Interferon-gamma: anti-fibrotic agent (protein, UniProt P01579 24-161, looked up)
Interferon gamma: QDPYVKEAENLKKYFNAGHSDVADNGTLFLGILKNWKEESDRKIMQSQIVSFYFKLFKNFKDDQSIQKSVETIKEDMNVKFFNSNKKKRDDFEKLTNYSVTDLNVQRKAIHELIQVMAELSPAAKTGKRKRSQMLFRG
On to B1, for which the results for the “rate of liver collagen synthesis in CCl4-treated mice” value in the data set with liver collagen synthesis and in the data set with liver collagen synthesis (listed as interferon-gamma) were “reduce the rate of collagen synthesis” and “suppressed”, respectively.

Broadly, the inhibition is the drop in the measured response relative to a control, in per cent.
